This is an account of results in ChEMBL document CHEMBL1141815, “KR025, a new cytotoxic compound from Myxococcus fulvus” (J Nat Prod, 1999).

SMILES strings stand for the structures. Converted amounts (≈) assume the structure as drawn.

Holding throughout (assay type): functional, cell-based
Assay [1] has as its system HCT-15. Nature of the assay: Cytotoxicity against human HCT-15 cells after 72 hrs by SRB assay. Particulars: HCT-15, 72 h.
For assay [2], the system named is A549. Put plainly: Cytotoxicity against human A549 cells after 72 hrs by SRB assay. Particulars: A549, 72 h. (The SRB assay estimates cell density from bound dye.)
The subject of assay [3] is XF498. Put plainly: Cytotoxicity against human XF498 cells after 72 hrs by SRB assay. Particulars: XF498, 72 h.
The subject of assay [4] is SK-OV-3. Nature of the assay: Cytotoxicity against human SKOV3 cells after 72 hrs by SRB assay. Particulars: SK-OV-3, 72 h.
Assay [5] deals with SK-MEL-2. Put plainly: Cytotoxicity against human SK-MEL-2 cells after 72 hrs by SRB assay. Particulars: SK-MEL-2, 72 h.

A word on the IC50: it is the concentration that gives 50% inhibition. `COC(=O)/C=C(/OC)[C@H](C)[C@H](/C=C/c1csc(-c2cnc([C@@H](C)/C=C/C=C/C(C)C)s2)n1)OC`: the IC50 in assay [1] worked out at 0.06 ng/mL (≈ 0.119 nM); in assay [2], 0.02 ng/mL (≈ 0.0398 nM); in assay [3], 0.03 ng/mL (≈ 0.0597 nM); in assay [4], 0.04 ng/mL (≈ 0.0796 nM); in assay [5], 8.5 ng/mL (≈ 16.9 nM).

Turning to `CCCCCC[C@H]1C(=O)O[C@H](C)[C@H](NC(=O)c2cccc(NC=O)c2O)C(=O)O[C@@H](C)[C@@H]1OC(=O)CC(C)C` [ANTIMYCIN A], the IC50 amounted to 410 ng/mL (≈ 747 nM) in assay [1]; 480 ng/mL (≈ 875 nM) in assay [2]; 390 ng/mL (≈ 711 nM) in assay [3]; 5500 ng/mL (≈ 10000 nM) in assay [4]; 270 ng/mL (≈ 492 nM) in assay [5].

On to `CO/C(=C/C(N)=O)[C@H](C)[C@H](/C=C/c1csc(-c2csc([C@@H](C)/C=C/C=C/C(C)C)n2)n1)OC` [MYXOTHIAZOL], for which the IC50 in assay [1] stood at 0.03 ng/mL (≈ 0.0615 nM); in assay [2], 0.01 ng/mL (≈ 0.0205 nM); in assay [3], 0.03 ng/mL (≈ 0.0615 nM); in assay [4] it was 0.01 ng/mL (≈ 0.0205 nM); in assay [5] it was 9.7 ng/mL (≈ 19.9 nM).
